US12187717B2, “Compound and use thereof in treating autoimmune diseases” (PARENCHYMA BIOTECH INC., priority 2022, dated 2025)

How the values were obtained:
[1] = pH-metric solubility and logP (SIRIUS T3); assay type: physicochemical
Method: After dissolving Compound 6 in ethanol, the solubility was measured and analyzed using a SIRIUS T3 machine.

CYP3A4 = CYP3A4 (Homo sapiens, UniProt P08684); details: 2 days, 10 μM
Method: Live human hepatocyte cell lines (Corning, Cat No. 454551) were collected using a plating medium, seeded on a 24-well plate so that a cell density thereof was 0.4×10^6 cells/well, and cultured for 2 to 4 hours. After replacing the plating medium with a hepatocyte culture medium, the hepatocytes were cultured for 24 hours. After culturing for 24 hours, hepatocytes were treated with Compound 6 at 1, 5, 25 µM. The medium containing the compound was changed every 24 hours for 2 days. The cultured cells were recovered to prepare mRNA samples. mRNA was extracted from the recovered cells by a phenol-chloroform sedimentation method using TRIZOL reagent (Invitrogen, Cat No. 15596018). From the isolated RNA, cDNA was synthesized by reverse transcription, followed by measuring drug metabolizing enzymes CYP1A2, CYP2C9, CYP2C19, CYP2B6, and CYP3A4 through real-time PCR analysis using the Quant Studio™ 7 Flex Real-Time PCR System (Applied Biosystems, CA). Relative values of the enzyme expression levels were compared by the ΔΔct method using GAPDH as a control enzyme. Herein, one (1) fold was set using the control. Results are expressed as % of control compared to control sample.

CYP1A2 = target: T1, CYP1A2 (Homo sapiens, UniProt P05177); assay: CYP isoenzyme activity; assay type: in vitro ADME; details: 10 μM
T1 sequence (P05177 1-516): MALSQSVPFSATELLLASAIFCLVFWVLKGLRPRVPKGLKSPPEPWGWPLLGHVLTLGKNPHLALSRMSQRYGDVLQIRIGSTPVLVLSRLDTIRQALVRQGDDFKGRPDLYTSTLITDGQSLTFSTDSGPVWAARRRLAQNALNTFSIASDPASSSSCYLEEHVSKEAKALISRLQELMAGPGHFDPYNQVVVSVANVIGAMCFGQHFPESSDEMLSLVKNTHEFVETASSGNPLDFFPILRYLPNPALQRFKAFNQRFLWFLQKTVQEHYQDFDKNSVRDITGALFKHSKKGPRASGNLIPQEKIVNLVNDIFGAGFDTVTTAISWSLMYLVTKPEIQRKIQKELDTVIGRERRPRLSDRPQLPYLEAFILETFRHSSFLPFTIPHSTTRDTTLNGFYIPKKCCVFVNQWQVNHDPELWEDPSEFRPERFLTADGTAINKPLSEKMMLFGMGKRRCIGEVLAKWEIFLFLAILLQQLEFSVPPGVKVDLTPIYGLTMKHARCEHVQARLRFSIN

[2] = system: colitis-associated colorectal cancer (CA-CRC); assay: AOM/DSS colorectal cancer model, preventive administration; assay type: in vivo, C57BL/6 mice; details: 10 mg/kg oral, 7th to 20th days (prevention)
Method: AOM (Sigma Aldrich, Cat No. A5486) was diluted with physiological saline so as to be a concentration of 10 mg/kg, and then administered intraperitoneally to C57BL/6 mice (8 weeks old, female, 18±2 g) by […] for a total of 3 times at an interval of 7 days (Experiment day 0, 7, 14th). On the 7th day of the experiment, a 1.5% DSS solution prepared by dissolving 1.5% DSS in sterile distilled water was given for drinking to the mice for 7 days. Further, the 1.5% DSS solution was changed at an interval of 2 days. Sterile distilled water was provided for drinking from the 8th day of the experiment. In the compound 6 administration group according to an embodiment of the present invention, 10 mg/kg of Compound 6 per mouse was completely dissolved in an ethanol-Cremophor EL mixture corresponding to 7.5% (v/v) of the administered dose, and then, was diluted in phosphate buffered saline to prepare the final ethanol:Cremophor EL:phosphate buffered saline (0.375:0.375:9.25, v/v/v), followed by oral administration with 200 μl of the prepared solution. In order to confirm the preventive effect, Compound 6 was administered for a total of 14 times from the 7th to the 20th days of the experiment.

psoriasis = assay: Imiquimod-induced psoriasis model; assay type: in vivo, BALB/C mice; details: 10 mg/kg oral daily, 0th to 5th days, back skin on 6th day
Method: Hair on the back of female BALB/C mice (8-10 weeks old) was shaved using a shaver and shaving cream, and 62.5 mg of 5% imiquimod cream was applied daily for 6 days to the shaved skin from the next day. Vaseline cream was applied to control mice (Vehicle). In the compound 6 administration group according to an embodiment of the present invention, 10 mg/kg of the compound per mouse was completely added to an ethanol-Cremophor EL mixture (1:1, v/v) corresponding to 15% (v/v) of the administered dose, and then, was diluted in phosphate buffered saline to prepare the final ethanol:Cremophor EL:phosphate buffered saline (7.5:7.5:85, v/v/v), followed by oral administration with 200 μl of the prepared solution daily for a total of 6 times from the 0th to the 5th days of the experiment. On the 6th day of the experiment, back skin tissues of mice were obtained to perform histology and mRNA experiments.

CYP2D6 = CYP2D6 (Homo sapiens, UniProt P10635); details: 2 days, 10 μM
CYP2D6, sequence (P10635 whole entry): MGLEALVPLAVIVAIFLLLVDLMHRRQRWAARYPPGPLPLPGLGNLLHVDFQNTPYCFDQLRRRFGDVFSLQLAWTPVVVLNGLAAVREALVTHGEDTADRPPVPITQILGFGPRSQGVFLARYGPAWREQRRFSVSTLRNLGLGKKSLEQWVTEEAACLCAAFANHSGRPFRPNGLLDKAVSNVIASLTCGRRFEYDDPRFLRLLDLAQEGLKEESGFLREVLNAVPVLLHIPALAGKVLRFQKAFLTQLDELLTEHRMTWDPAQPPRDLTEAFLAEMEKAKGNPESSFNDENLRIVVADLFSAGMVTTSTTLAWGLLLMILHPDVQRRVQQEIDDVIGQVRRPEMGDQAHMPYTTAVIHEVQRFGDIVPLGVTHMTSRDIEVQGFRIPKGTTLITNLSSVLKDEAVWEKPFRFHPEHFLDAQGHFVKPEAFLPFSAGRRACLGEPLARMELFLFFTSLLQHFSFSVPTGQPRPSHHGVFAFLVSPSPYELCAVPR

CYP3A4, sequence (P08684 whole entry): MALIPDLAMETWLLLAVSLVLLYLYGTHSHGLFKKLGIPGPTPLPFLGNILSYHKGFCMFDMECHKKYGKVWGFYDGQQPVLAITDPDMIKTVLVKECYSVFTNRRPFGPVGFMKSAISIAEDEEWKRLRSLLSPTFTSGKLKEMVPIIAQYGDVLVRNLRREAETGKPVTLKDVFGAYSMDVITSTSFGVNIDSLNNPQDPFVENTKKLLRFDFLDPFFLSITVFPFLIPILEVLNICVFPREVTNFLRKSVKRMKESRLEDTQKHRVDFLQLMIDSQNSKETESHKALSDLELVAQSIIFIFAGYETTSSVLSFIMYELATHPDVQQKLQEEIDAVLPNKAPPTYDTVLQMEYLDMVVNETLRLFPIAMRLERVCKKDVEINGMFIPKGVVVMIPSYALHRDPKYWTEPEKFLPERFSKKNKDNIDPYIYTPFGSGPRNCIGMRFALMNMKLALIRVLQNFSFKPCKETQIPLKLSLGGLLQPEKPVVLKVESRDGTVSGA

## O=C(Cc1c[nH]c2ccc(Cl)cc12)Nc1nc2ccc(N3CCOCC3)cc2s1 [Compound 6, 2-(5-chloro-1H-indol-3-yl)-N-(6-morpholinobenzo[d]thiazol-2-yl)acetamide]
[1]; Compound 6 vs Comparative Example 1
  pH-metric solubility molarity relative to Comparative Example 1: about 3.92 times
[1]; pH-metric results, SIRIUS T3
  logP: 3.04
  pH-metric solubility, Molarity: 14.3 μM
  pH-metric solubility, Weight/ml: 6.104 μg/ml
CYP3A4
  CYP3A4 activity: 85.7 % of Control Activity
CYP1A2
  CYP1A2 activity: 88.2 % of Control Activity
[2]; after 70 days
  body weight: increase in the body weight similar to that of normal mice
[2]; vs control
  number of tumors: significantly smaller
  size of tumors: significantly smaller
psoriasis
  Foxp3 expression in skin lesions: markedly increased
  IL-10 expression in skin lesions: markedly increased
  IL-17a mRNA expression level in skin lesions: significantly reduced
  S100a8 mRNA expression level in skin lesions: significantly reduced
  epithelial thickness: significantly reduced
CYP2D6
  CYP2D6 activity: 101.2 % of Control Activity
